The values that follow come from US20210101928A1 (Sage Therapeutics, Inc., priority 2017, published 2021).

The target of the assay is GABAA receptor ([35S]-TBPS binding, rat brain cortical membranes). As to the kind of experiment: Steroid inhibition of [35S]-TBPS binding. The settings on record: Table II-2, 3 nM [35S]-TBPS, in the presence of 5 mM GABA, read-out: TBPS IC50. On the procedure:
[^35S]-t-Butylbicyclophosphorothionate (TBPS) binding assays using rat brain cortical membranes in the presence of 5 mM GABA has been described (Gee et al, J. Pharmacol. Exp. Ther. 1987, 241, 346-353; Hawkinson et al, Mol. Pharmacol. 1994, 46, 977-985; Lewin, A. H et al., Mol. Pharmacol. 1989, 35, 189-194).
Briefly, cortices are rapidly removed following decapitation of carbon dioxide-anesthetized Sprague-Dawley rats (200-250 g). The cortices are homogenized in 10 volumes of ice-cold 0.32 M sucrose using a glass/teflon homogenizer and centrifuged at 1500×g for 10 min at 4° C. The resultant supernatants are centrifuged at 10,000×g for 20 min at 4° C. to obtain the P2 pellets. The P2 pellets are resuspended in 200 mM NaCl/50 mM Na—K phosphate pH 7.4 buffer and centrifuged at 10,000×g for 10 min at 4° C. This washing procedure is repeated twice and the pellets are resuspended in 10 volumes of buffer. Aliquots ([…]) of the membrane suspensions are incubated with 3 nM [^35S]-TBPS and […] aliquots of test drug dissolved in dimethyl sulfoxide (DMSO) (final 0.5%) in the presence of 5 mM GABA. The incubation is brought to a final volume of 1.0 mL with buffer. Nonspecific binding is determined in the presence of […] and ranged from 15 to 25%. Following a 90 min incubation at room temp, the assays are terminated by filtration through glass fiber filters (Schleicher and Schuell No. 32) using a cell harvester (Brandel) and rinsed three times with ice-cold buffer. Filter bound radioactivity is measured by liquid scintillation spectrometry. Non-linear curve fitting of the overall data for each drug averaged for each concentration is done using Prism (GraphPad). […] The concentration of test compound producing 50% inhibition (IC50) of specific binding and the maximal extent of inhibition (Imax) are determined for the individual experiments with the same model used for the overall data and then the means±SEM.s of the individual experiments are calculated.
Various compounds are or can be screened to determine their potential as modulators of [^35S]-TBPS binding in vitro. These assays are or can be performed in accordance with the above.

The IC50 is the concentration that gives 50% inhibition. For the molecule `CC[C@]12CC[C@@](C)(O)C[C@H]1CC[C@H]1[C@@H]3CC[C@H](C(=O)N4CCCC[C@@H]4C)[C@@]3(C)CC[C@@H]12` [II-20, ((3R,5R,8S,9S,10S,13S,14S,17S)-10-ethyl-3-hydroxy-3,13-dimethylhexadecahydro-1H-cyclopenta[a]phenanthren-ren-17-yl)((S)-2-methylpiperidin-1-yl)methanone], the IC50 lay within 10 to 100 nM.
The figure for `CC[C@H]1CCCCN1C(=O)[C@H]1CC[C@H]2[C@@H]3CC[C@@H]4C[C@](C)(O)CC[C@]4(CC)[C@H]3CC[C@]12C` [II-21, ((3R,5R,8S,9S,10S,13S,14S,17S)-10-ethyl-3-hydroxy-3,13-dimethylhexadecahydro-cyclopenta[a]phenanthren-17-yl)((S)-2-ethylpiperidin-1-yl)methanone] is 10 to 100 nM.
Under `CC[C@@H]1CCCCN1C(=O)[C@H]1CC[C@H]2[C@@H]3CC[C@@H]4C[C@](C)(O)CC[C@]4(CC)[C@H]3CC[C@]12C` [II-21a, ((3R,5R,8S,9S,10S,13S,14S,17S)-10-ethyl-3-hydroxy-3,13-dimethylhexadecahydro-1H-cyclopenta[a]phenanthren-17-yl)((R)-2-ethylpiperidin-1-yl)methanone] stands 10 to 100 nM; under `CC[C@]12CC[C@@](C)(O)C[C@H]1CC[C@H]1[C@@H]3CC[C@H](C(N)=O)[C@@]3(C)CC[C@@H]12` [II-22, (3R,5R,8S,9S,10S,13S,14S,17S)-10-ethyl-3-hydroxy-3,13-dimethylhexadecahydro-1H-cyclopenta[a]phenanthrene-17-carboxamide], 100 to 1000 nM.
For the molecule `CCOC[C@@]1(O)CC[C@@]2(CC)[C@H](CC[C@H]3[C@@H]4CC[C@H](C(=O)Nc5ccc(C#N)cc5C)[C@@]4(C)CC[C@@H]32)C1` [II-43, (3R,5R,8S,9S,10S,13S,14S,17S)-N-(4-cyano-2-methylphenyl)-3-(ethoxymethyl)-10-ethyl-3-hydroxy-13-methylhexadecahydro-1H-cyclopenta[a]phenanthrene-17-carboxamide], the IC50 is under 10 nM.
The figure for `CCOC[C@@]1(O)CC[C@@]2(CC)[C@H](CC[C@H]3[C@@H]4CC[C@H](C(=O)N5CCCC[C@@H]5C)[C@@]4(C)CC[C@@H]32)C1` [II-44, ((3R,5R,85,95,10S,13S,14S,17S)-3-(ethoxymethyl)-10-ethyl-3-hydroxy-13-methylhexadecahydro-1H-cyclopenta[a]phenanthren-17-yl)((S)-2-methylpiperidin-1-yl)methanone] is 100 to 1000 nM; for `CCOC[C@@]1(O)CC[C@@]2(CC)[C@H](CC[C@H]3[C@@H]4CC[C@H](C(=O)N5CCCC[C@H]5C)[C@@]4(C)CC[C@@H]32)C1` [II-45, ((3R,5R,8S,9S,10S,13S,14S,17S)-3-(ethoxymethyl)-10-ethyl-3-hydroxy-13-methylhexadecahydro-1H-cyclopenta[a]phenanthren-17-yl)((R)-2-methylpiperidin-1-yl)methanone] it is 10 to 100 nM.
The figure for `CCOC[C@@]1(O)CC[C@@]2(CC)[C@H](CC[C@H]3[C@@H]4CC[C@H](C(=O)Nc5ccccc5)[C@@]4(C)CC[C@@H]32)C1` [II-46, (3R,5R,85,95,10S,13S,14S,17S)-3-(ethoxymethyl)-10-ethyl-3-hydroxy-13-methyl-N-phenylhexadecahydro-1H-cyclopenta[a]phenanthrene-17-carboxamide] is 10 to 100 nM; for `CCOC[C@@]1(O)CC[C@@]2(CC)[C@H](CC[C@H]3[C@@H]4CC[C@H](C(=O)Nc5ccccc5C)[C@@]4(C)CC[C@@H]32)C1` [II-47, (3R,5R,8S,9S,10S,13S,14S,17S)-3-(ethoxymethyl)-10-ethyl-3-hydroxy-13-methyl-N-(o-tolyl)hexadecahydro-1H-cyclopenta[a]phenanthrene-17-carboxamide] it is under 10 nM.
Under `CCOC[C@@]1(O)CC[C@@]2(CC)[C@H](CC[C@H]3[C@@H]4CC[C@H](C(N)=O)[C@@]4(C)CC[C@@H]32)C1` [II-48, (3R,5R,8S,9S,10S,13S,14S,17S)-3-(ethoxymethyl)-10-ethyl-3-hydroxy-13-methylhexadecahydro-1H-cyclopenta[a]phenanthrene-17-carboxamide] stands 100 to 1000 nM.
As for `CCOC[C@@]1(O)CC[C@@]2(CC)[C@H](CC[C@H]3[C@@H]4CC[C@H](C(=O)N5CCCC[C@@H]5c5ccc(F)cc5)[C@@]4(C)CC[C@@H]32)C1` [II-50, ((3R,5R,8S,9S,10S,13S,14S,17S)-3-(ethoxymethyl)-10-ethyl-3-hydroxy-13-methylhexadecahydro-1H-cyclopenta[a]phenanthren-17-yl)((R)-2-(4-fluorophenyl)piperidin-1-yl)methanone], the IC50 was in the range of 100 to 1000 nM.
Regarding `CCOC[C@@]1(O)CC[C@@]2(CC)[C@H](CC[C@H]3[C@@H]4CC[C@H](C(=O)N5CCCC[C@H]5c5ccc(F)cc5)[C@@]4(C)CC[C@@H]32)C1` [II-51, ((3R,5R,8S,9S,10S,13S,14S,17S)-3-(ethoxymethyl)-10-ethyl-3-hydroxy-13-methylhexadecahydro-1H-cyclopenta[a]phenanthren-17-yl)((S)-2-(4-fluorophenyl)piperidine-1-yl)methanone], the IC50 lay in the range of 10 to 100 nM.
The figure for `CCOC[C@@]1(O)CC[C@@]2(CC)[C@@H](CC[C@H]3[C@@H]4CC[C@H](C(=O)Nc5ccc(C#N)cc5C)[C@@]4(C)CC[C@@H]32)C1` [II-63] is 10 to 100 nM.
Under `CCOC[C@@]1(O)CC[C@@]2(CC)[C@H](CC[C@H]3[C@@H]4CC[C@H](C(=O)Cn5nccn5)[C@@]4(C)CC[C@@H]32)C1` [II-75, 1-((3R,5R,8S,9S,10S,13S,14S,17S)-3-(ethoxymethyl)-10-ethyl-3-hydroxy-13-methylhexadecahydro-1H-cyclopenta[a]phenanthren-17-yl)-2-(2H-1,2,3-triazole-2-yl)ethan-1-one] stands 10 to 100 nM; under `CCOC[C@@]1(O)CC[C@@]2(CC)[C@H](CC[C@H]3[C@@H]4CC[C@H](C(=O)Cn5ccnn5)[C@@]4(C)CC[C@@H]32)C1` [II-76, 1-((3R,5R,8S,9S,10S,13S,14S,17S)-3-(ethoxymethyl)-10-ethyl-3-hydroxy-13-methylhexadecahydro-1H-cyclopenta[a]phenanthren-17-yl)-2-(1H-1,2,3-triazol-1-yl)ethan-1-one], 10 to 100 nM; under `CCOC[C@@]1(O)CC[C@@]2(CC)[C@@H](CC[C@H]3[C@@H]4CC[C@H](C(=O)Cn5nnnc5C)[C@@]4(C)CC[C@@H]32)C1` [II-78, 1-((3R,5S,8S,9S,10S,13S,14S,17S)-3-(ethoxymethyl)-10-ethyl-3-hydroxy-13-methylhexadecahydro-1H-cyclopenta[a]phenanthren-17-yl)-2-(5-methyl-1H-tetrazol-1-yl)ethan-1-one], 100 to 1000 nM.
The figure for `CCOC[C@@]1(O)CC[C@@]2(CC)[C@H](CC[C@H]3[C@@H]4CC[C@H](C(=O)Cn5ccc(C#N)n5)[C@@]4(C)CC[C@@H]32)C1` [II-79, 1-(2-((3R,5R,8S,9S,10S,13S,14S,17S)-3-(ethoxymethyl)-10-ethyl-3-hydroxy-13-methylhexadecahydro-1H-cyclopenta[a]phenanthren-17-yl)-2-oxoethyl)-1H-pyrazole-3-carbonitrile] is under 10 nM; for `C=C[C@]12CC[C@@](C)(O)C[C@@H]1CC[C@H]1[C@@H]3CC[C@H](C(C)=O)[C@@]3(C)CC[C@@H]12` [II-A4, 1((3R,5S,8S,9S,10R,13S,14S,17S)-3-hydroxy-3,13-dimethyl-10-vinylhexadecahydro-1H-cyclopenta[a]phenanthren-17-yl)ethan-1-one] it is 10 to 100 nM.
Regarding `CC[C@]12CC[C@@](C)(O)C[C@@H]1CC[C@H]1[C@@H]3CC[C@H](C(C)=O)[C@@]3(C)CC[C@@H]12` [II-A5, 1-((3R,5S,8S,9S,10S,13S,14S,17S)-10-ethyl-3-hydroxy-3,13-dimethylhexadecahydro-1H-cyclopenta [a]phenanthren-17-yl)ethan-1-one], the IC50 fell in the range of 10 to 100 nM.
The figure for `CC[C@]12CC[C@@](C)(O)C[C@@H]1CC[C@H]1[C@@H]3CC[C@H](C(=O)Cn4cccn4)[C@@]3(C)CC[C@@H]12` [II-A7, 1-((3R,5S,8S,9S,10S,13S,14S,17S)-10-ethyl-3-hydroxy-3,13-dimethylhexadecahydro-1H-cyclopenta [a]phenanthren-17-yl)-2-(1H-pyrazol-1-yl)ethan-1-one] is 10 to 100 nM.
Regarding `CC[C@]12CC[C@@](C)(O)C[C@@H]1CC[C@H]1[C@@H]3CC[C@H](C(=O)Cn4ccnn4)[C@@]3(C)CC[C@@H]12` [II-A8], the IC50 was under 10 nM.
